Assay results from PubChem BioAssay (NCI).
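Briefly, cells in 96-well plates were exposed to five compound concentrations for 48 h, and endpoints were estimated by linear interpolation. Here, GI50 denotes the concentration required for 50% inhibition of growth. At the TGI there is no net growth.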

Legend:
Assay in all cases: NCI tumour cell line growth inhibition, 48 h; in the data active means GI50 below about 0.43 µM; inactive means the rest
SNB-19 CNS = test system: SNB-19 CNS
RXF 393 renal = test system: RXF 393 renal
RPMI-8226 leukemia = test system: RPMI-8226 leukemia
HT29 colon = test system: HT29 colon
IGROV1 ovarian = test system: IGROV1 ovarian
SF-268 CNS = test system: SF-268 CNS
SK-MEL-5 melanoma = test system: SK-MEL-5 melanoma
SR leukemia = test system: SR leukemia
COLO 205 colon = test system: COLO 205 colon
OVCAR-3 ovarian = test system: OVCAR-3 ovarian
UACC-62 melanoma = test system: UACC-62 melanoma
KM12 colon = test system: KM12 colon
SK-OV-3 ovarian = test system: SK-OV-3 ovarian
CAKI-1 renal = test system: CAKI-1 renal
SK-MEL-28 melanoma = test system: SK-MEL-28 melanoma
EKVX NSCLC = test system: EKVX NSCLC
LOX IMVI melanoma = test system: LOX IMVI melanoma
MDA-MB-231 breast = test system: MDA-MB-231 breast
TK-10 renal = test system: TK-10 renal
MOLT-4 leukemia = test system: MOLT-4 leukemia
HCT-15 colon = test system: HCT-15 colon
786-0 renal = test system: 786-0 renal
OVCAR-5 ovarian = test system: OVCAR-5 ovarian
UO-31 renal = test system: UO-31 renal
SK-MEL-2 melanoma = test system: SK-MEL-2 melanoma
DU-145 prostate = test system: DU-145 prostate
MDA-MB-435 = test system: MDA-MB-435
MCF7 breast = test system: MCF7 breast
HL-60(TB) leukemia = test system: HL-60(TB) leukemia
SW-620 colon = test system: SW-620 colon
T-47D breast = test system: T-47D breast
HOP-62 NSCLC = test system: HOP-62 NSCLC
M14 melanoma = test system: M14 melanoma
HCC-2998 colon = test system: HCC-2998 colon
SF-539 CNS = test system: SF-539 CNS
MDA-MB-468 breast = test system: MDA-MB-468 breast
SNB-75 CNS = test system: SNB-75 CNS
K-562 leukemia = test system: K-562 leukemia
HOP-92 NSCLC = test system: HOP-92 NSCLC
NCI-H522 lung = test system: NCI-H522 lung
U251 CNS = test system: U251 CNS
HS 578T breast = test system: HS 578T breast
A498 renal = test system: A498 renal
OVCAR-8 ovarian = test system: OVCAR-8 ovarian
OVCAR-4 ovarian = test system: OVCAR-4 ovarian
PC-3 prostate = test system: PC-3 prostate
SF-295 CNS = test system: SF-295 CNS
ACHN renal = test system: ACHN renal
NCI-H460 lung = test system: NCI-H460 lung
NCI-H23 lung = test system: NCI-H23 lung
UACC-257 melanoma = test system: UACC-257 melanoma
A549 NSCLC = test system: A549 NSCLC
SN12C renal = test system: SN12C renal
BT-549 breast = test system: BT-549 breast
CCRF-CEM leukemia = test system: CCRF-CEM leukemia
MALME-3M melanoma = test system: MALME-3M melanoma
HCT-116 colon = test system: HCT-116 colon
NCI-H226 lung = test system: NCI-H226 lung

Cc1cc(C2(c3cc(C)c(OCC(O)CNc4c(C)n(C)n(-c5ccccc5)c4=O)cc3C(C)C)OC(=O)c3ccccc32)c(C(C)C)cc1OCC(O)CNc1c(C)n(C)n(-c2ccccc2)c1=O (stereo unspecified)
41.8 µM: TGI (COLO 205 colon)
26.7 µM: TGI (SK-MEL-5 melanoma)
44.7 µM: TGI (M14 melanoma)
30.3 µM: TGI (LOX IMVI melanoma)
43.4 µM: TGI (NCI-H460 lung)
> 100 µM: TGI (SNB-19 CNS) | TGI (HT29 colon) | TGI (IGROV1 ovarian) | TGI (SF-268 CNS) | TGI (SR leukemia) | TGI (KM12 colon) | TGI (SK-OV-3 ovarian) | TGI (CAKI-1 renal) | TGI (EKVX NSCLC) | TGI (TK-10 renal) | TGI (MOLT-4 leukemia) | TGI (UO-31 renal) | TGI (DU-145 prostate) | TGI (SW-620 colon) | TGI (T-47D breast) | TGI (HOP-62 NSCLC) | TGI (SNB-75 CNS) | TGI (K-562 leukemia) | TGI (HS 578T breast) | TGI (A498 renal) | TGI (OVCAR-8 ovarian) | TGI (OVCAR-4 ovarian) | TGI (PC-3 prostate) | TGI (ACHN renal) | TGI (NCI-H23 lung) | TGI (UACC-257 melanoma) | TGI (A549 NSCLC) | TGI (SN12C renal) | TGI (BT-549 breast) | TGI (CCRF-CEM leukemia) | TGI (NCI-H226 lung)
99.6 µM: TGI (U251 CNS)
inactive: GI50 (SNB-19 CNS) 23.5 µM | GI50 (RXF 393 renal) 5.2 µM | GI50 (RPMI-8226 leukemia) 13.9 µM | GI50 (HT29 colon) 26.7 µM | GI50 (IGROV1 ovarian) 29 µM | GI50 (SF-268 CNS) 18.1 µM | GI50 (SK-MEL-5 melanoma) 13.2 µM | GI50 (SR leukemia) 20.9 µM | GI50 (COLO 205 colon) 17.9 µM | GI50 (OVCAR-3 ovarian) 19 µM | GI50 (UACC-62 melanoma) 9.74 µM | GI50 (KM12 colon) 25.8 µM | GI50 (SK-OV-3 ovarian) 49.2 µM | GI50 (CAKI-1 renal) 4.11 µM | GI50 (SK-MEL-28 melanoma) 23.2 µM | GI50 (EKVX NSCLC) 14.7 µM | GI50 (LOX IMVI melanoma) 14.4 µM | GI50 (MDA-MB-231 breast) 10.1 µM | GI50 (TK-10 renal) 49.3 µM | GI50 (MOLT-4 leukemia) 6.78 µM | GI50 (HCT-15 colon) 17.1 µM | GI50 (786-0 renal) 19.2 µM | GI50 (OVCAR-5 ovarian) 17.7 µM | GI50 (UO-31 renal) 19.9 µM | GI50 (SK-MEL-2 melanoma) 17.5 µM | GI50 (DU-145 prostate) 34 µM | GI50 (MDA-MB-435) 14.7 µM | GI50 (MCF7 breast) 14 µM | GI50 (HL-60(TB) leukemia) 14.2 µM | GI50 (SW-620 colon) 28.2 µM | GI50 (T-47D breast) 18.5 µM | GI50 (HOP-62 NSCLC) 36.5 µM | GI50 (M14 melanoma) 17.8 µM | GI50 (HCC-2998 colon) 17.1 µM | GI50 (SF-539 CNS) 18.6 µM | GI50 (MDA-MB-468 breast) 12.1 µM | GI50 (SNB-75 CNS) 20.3 µM | GI50 (K-562 leukemia) 14.4 µM | GI50 (HOP-92 NSCLC) 4.49 µM | GI50 (NCI-H522 lung) 26.9 µM | GI50 (U251 CNS) 25.9 µM | GI50 (HS 578T breast) 14.2 µM | GI50 (A498 renal) 29.1 µM | GI50 (OVCAR-8 ovarian) 27 µM | GI50 (OVCAR-4 ovarian) 27.2 µM | GI50 (PC-3 prostate) 5.72 µM | GI50 (SF-295 CNS) 11.1 µM | GI50 (ACHN renal) 23.6 µM | GI50 (NCI-H460 lung) 15.6 µM | GI50 (NCI-H23 lung) 23.5 µM | GI50 (UACC-257 melanoma) 24.1 µM | GI50 (A549 NSCLC) 23.1 µM | GI50 (SN12C renal) 26.1 µM | GI50 (BT-549 breast) 23.3 µM | GI50 (CCRF-CEM leukemia) 15.5 µM | GI50 (MALME-3M melanoma) 20 µM | GI50 (HCT-116 colon) 16.9 µM | GI50 (NCI-H226 lung) 15.7 µM
94.1 µM: TGI (NCI-H522 lung)
56.3 µM: TGI (OVCAR-5 ovarian)
38 µM: TGI (RXF 393 renal)
49.6 µM: TGI (HCC-2998 colon)
52.9 µM: TGI (SF-539 CNS) | TGI (MALME-3M melanoma)
49.8 µM: TGI (HOP-92 NSCLC)
92.9 µM: TGI (SK-MEL-28 melanoma)
44.5 µM: TGI (MDA-MB-468 breast)
67.9 µM: TGI (HCT-15 colon)
79.7 µM: TGI (HL-60(TB) leukemia)
24.4 µM: TGI (UACC-62 melanoma)
32 µM: TGI (SF-295 CNS)
27.2 µM: TGI (MDA-MB-231 breast)
46.8 µM: TGI (HCT-116 colon)
40.8 µM: TGI (SK-MEL-2 melanoma)
76.5 µM: TGI (786-0 renal)
39.6 µM: TGI (MCF7 breast)
84.6 µM: TGI (RPMI-8226 leukemia)
92.6 µM: TGI (OVCAR-3 ovarian)
38.3 µM: TGI (MDA-MB-435)
